Measured values as given in EP1306084A1, “Compositions for the control of parasitic infestations in fish” (Alpharma AS, priority 1998, dated 1999).

Legend:
[1] = Adverse or side effects observed over all trials; type: in vivo, fish; conditions: injection, bath solution or oral treatment; all dosages examined
From the text: This is in regard to all the dosages that have been examined and the various administration methods which have been used.

[2] = tested on: sea lice; experiment: Injection of hexaflumuron in furunculosis vaccine formulations, sea lice counts after sea water transfer (Example 7); type: in vivo, salmon (Salmo salar); conditions: for average number of lice: control group 19.2
Experimental: (§1) The treatment dosage was 9 mg hexaflumuron per kg fish per day for 10 days. This is indicated by "Groups/Timepoints" in the figure; • Figure 2 relates to the trial in Example 2 that was carried out on Atlantic salmon (Salmo salar). […] The treatment dosage varied between 3 - 9 mg hexaflumuron and 9- 12 mg fluazuron per kg fish per day for 7 days. This is indicated by "Groups/Timepoints" in the diagram. […] The treated groups are compared to an untreated control group. The treatment dosage was 4 mg hexaflumuron per kg fish per day for 5 days. This is indicated by "Groups/Timepoints" in the figure. Cage 2 = controls, Cage 4-6 = treated groups, 16.6.97 = time point for sea transfer and 5.8.97= controls treated by bathing with deltamethrin; • Figure 4 relates to the trial described in Example 5, which was carried out on sea trout (Salmo trutta). […] The treated groups are compared with an untreated control group. The dosage for oral treatment was 4 mg hexaflumuron per kilo fish per day for 5 days, and 5 ppm hexaflumuron as a 30 minute bath treatment. This is indicated by "Groups/Timepoints" in the figure. Cage 1.4 = Controls, cage 1.3 = Oral treatment, cage 1.2 = Bath treatment. […] The treated groups are compared with an untreated control group, and one group that has been treated orally with teflubenzuron (10 mg/kg of teflubenzuron per kg fish per day for 7 days). The dosage for oral treatment was 5.6 mg hexaflumuron per kg fish per day for 7 days, and 5 ppm hexaflumuron as a 30 minute bath treatment. […] End of treatment: 22.10.97, Sea transfer: 23.10.97. T1 = 3 weeks post end of treatment, T2 = 5 weeks post end of treatment, T3 = 9 weeks post end of treatment, T4 = 12 weeks post end of treatment; • Figure 6 relates to the trial in Example 6 at time points 4-6, with the same trial parameters as for Figure 5. T5 = 15 weeks post end of treatment, T6 = 17 weeks post end of treatment. Cage 3 and 4 were treated by bath with deltamethrin after sea lice counting at T4 (12.01.98); • Figure 7 relates to the trial described in Example 7 where salmon were injected on 17.12.97 with two formulations (groups L and R, respectively) of hexaflumuron and a vaccine formulation without hexaflumuron (control). […] The vaccinated fish was transferred to sea water on 09.01.98; • Figure 8 summarises the trial of Example 8 where salmon smolts were injected with 9 different active substances on 08.07.98. Only results for Moxidectin (Mox.), Lufenuron (Luf.) and hexaflumuron in Apoject 1-Fural (Hex.Apo) and in animal oil (Hex.oil) are shown, and • Figure 9 summarises the trial described in Example 10 where salmon were injected on 03.12.97 with 3 different formulations of hexaflumuron (Hexa 1, Hexa 2 and Hexa 3). The fish were transferred to sea water at T0.
About 80 salmon (Salmo salar) at an average weight of about 80 grams were divided into two groups and injected with two different formulations of hexaflumuron at a dosage of about 50 mg/kg. Both formulations were prepared based upon a vaccine against furunculosis containing inactivated cells of Aeromonas salmonicida subsp. salmonicida. Hexaflumuron was mixed/formulated into the vaccine in two different manners to study the effect of the formulation on the depot effect in the fish and on the stability characteristics of the vaccine emulsions.
The fish were dosed (injected) while they were in freshwater and 23 days after the administration they were transferred to sea water (mini-cages). In parallel with the two groups, a third group comprising 40 fish of the same origin and size was vaccinated with a conventional vaccine without hexaflumuron. This group was kept in the same tank (freshwater) and cage (sea water) as the "hexaflumuron injected" groups and served as negative control/reference group in respect of sea lice infestations. Prior to the start of the trial, the groups were marked by fin cutting. The water temperature varied between 3.8 and 16.0°C throughout the trial. […]

[3] = tested on: sea lice; experiment: Oral or bath treatment in freshwater before sea transfer, sea lice counts after natural infestation (Example 6); type: in vivo, Atlantic salmon (Salmo salar)
Experimental: as §1
About 400 Atlantic salmon (Salmo salar) of an average weight of 80 grams were divided into four groups of 100 fish in each. One group was given an oral treatment of 5.6 mg hexaflumuron per kg fish each day for 7 days before sea transfer. Group two was given a bath treatment with a dosage of 5 ppm (mg/l) hexaflumuron for 30 minutes with a formulation containing 10% hexaflumuron. Group three was given oral treatment with a daily dosage of 10 mg teflubenzuron per kg fish for 7 days, while the last group remained untreated. […] Every third week, lice from 10 fish in each cage were counted to assess if there was a difference in the number of lice between the cages. […]

[4] = tested on: sea lice; experiment: Oral treatment in freshwater before sea transfer, sea lice counts after natural infection (Example 4); type: in vivo, salmon (Salmo salar)
Experimental: The treatment dosage was 9 mg hexaflumuron per kg fish per day for 10 days. This is indicated by "Groups/Timepoints" in the figure; • Figure 2 relates to the trial in Example 2 that was carried out on Atlantic salmon (Salmo salar). […] The treatment dosage varied between 3 - 9 mg hexaflumuron and 9- 12 mg fluazuron per kg fish per day for 7 days. This is indicated by "Groups/Timepoints" in the diagram. […] The treated groups are compared to an untreated control group. The treatment dosage was 4 mg hexaflumuron per kg fish per day for 5 days. This is indicated by "Groups/Timepoints" in the figure. Cage 2 = controls, Cage 4-6 = treated groups, 16.6.97 = time point for sea transfer and 5.8.97= controls treated by bathing with deltamethrin; • Figure 4 relates to the trial described in Example 5, which was carried out on sea trout (Salmo trutta). […] The treated groups are compared with an untreated control group. The dosage for oral treatment was 4 mg hexaflumuron per kilo fish per day for 5 days, and 5 ppm hexaflumuron as a 30 minute bath treatment. This is indicated by "Groups/Timepoints" in the figure. Cage 1.4 = Controls, cage 1.3 = Oral treatment, cage 1.2 = Bath treatment. […] The treated groups are compared with an untreated control group, and one group that has been treated orally with teflubenzuron (10 mg/kg of teflubenzuron per kg fish per day for 7 days). The dosage for oral treatment was 5.6 mg hexaflumuron per kg fish per day for 7 days, and 5 ppm hexaflumuron as a 30 minute bath treatment. […] End of treatment: 22.10.97, Sea transfer: 23.10.97. […]
About 2,500 salmon (Salmo salar) of average weight 42 grams were treated orally with a daily dosage of 4 mg hexaflumuron per kilo fish for 5 days. […] The number of lice on 10 fish from each cage were counted every third week to check if there was any difference in the number of lice in the cages. […]

O=C(NC(=O)c1c(F)cccc1F)Nc1cc(Cl)c(OC(F)(F)C(F)F)c(Cl)c1 [hexaflumuron]
adverse or side effects [1]: No adverse or side effects have been observed
average number of lice ([2]; T8, first-named treated group (formulation)): 4.8
average number of lice ([2]; T8, second-named treated group (formulation)): 1.8
number of sea lice versus control group ([2]; T9 and T10, treated groups): significant differences
number of lice versus control group ([2]; T11, after ALPHA MAX bath of all groups): significantly less lice
excellent protection against sea lice infestation after sea water transfer ([2]; injection about 50 mg/kg): 7 months
partially protective effect after sea water transfer ([2]; injection about 50 mg/kg): ≤ 10.5 months
time after sea water transfer until sea lice were first recorded (T8) ([2]; injection about 50 mg/kg, two treated groups, control had lice from T5 (126 days)): 215 days
protection period ([3]; hexaflumuron oral or bath before sea transfer): at least 11 weeks
number of lice larger than Chalimus II versus control ([3]; oral 5.6 mg per kg each day for 7 days or bath 5 ppm for 30 minutes, 5, 8 and 11 weeks (time points 2, 3 and 4)): significantly lower
protection from sea lice infestation after transfer to sea ([4]; oral 4 mg per kilo fish daily for 5 days in freshwater): 6-9 weeks
number of lice larger than Chalimus II versus control ([4]; oral 4 mg per kilo fish daily for 5 days, 3 and 6 weeks after sea transfer): significantly lower
